Test results as given in ChEMBL document CHEMBL4765331, “Amides of pyrrole- and thiophene-fused anthraquinone derivatives: A role of the heterocyclic core in antitumor properties” (Eur J Med Chem, 2020).
Activity calls are given as the source filed them. The rule behind the calls is not given here.

What was measured:
[1] = tested on: P388; assay: Antitumour activity against mouse P388 cells xenografted subcutaneously in BDF1 mouse assessed as inhibition of tumour growth at 20 to 60 mg/kg, ip administered qd for 5 days starting from day 1 of tumor cell inoculation and measured at day 14 to 18 post-tumor cell inoculation; type: functional, organism-based; conditions: dose 20-60 mg/kg, time 14-18 day, TDE = time-dependent effect
[2] = Drug uptake in mouse NIH3T3 cells assessed as compound localization in nucleus at 1 uM measured after 15 mins by laser scanning microscope; type: ADME, subcellular; conditions: nih3t3, 0.25 h
[3] = tested on: K562; assay: Induction of apoptosis in human K562 cells assessed as necrotic cells at 1.6 uM measured after 24 hrs by Annexin V-APC/PI staining based flow cytometry assay (reference value: 3.9%); type: functional
[4] = tested on: HCT-116; assay: Antiproliferative activity against human HCT-116 cells assessed as inhibition of cell proliferation measured after 72 hrs by MTT assay; type: functional, cell-based; conditions: HCT-116, 72 h
[5] = tested on: K562; assay: Induction of cell cycle arrest in human K562 cells assessed as accumulation at G2/M phase at 2XIC50 measured after 24 hrs by propidium iodide/RNase staining based flow cytometry; type: functional
[6] = Antiproliferative activity against P-gp-positive/doxorubicin-resistant human K562/4 cells assessed as inhibition of cell proliferation measured after 72 hrs by MTT assay; type: functional; conditions: K562/4, 72 h
[7] = tested on: NCI-H460; assay: Antiproliferative activity against human NCI-H460 cells assessed as inhibition of cell proliferation measured after 72 hrs by MTT assay; type: functional, cell-based; conditions: NCI-H460, 72 h
[8] = Selectivity index, ratio of IC50 for human TERT-RPE1 cells to IC50 for human NCI-H460 cells; type: toxicity; conditions: TERT-RPE1 cells and NCI-H460 cells, read-out: Ratio IC50
[9] = tested on: K562; assay: Antiproliferative activity against human K562 cells assessed as inhibition of cell proliferation measured after 72 hrs by MTT assay; type: functional, cell-based; conditions: K562, 72 h
[10] = tested on: Calf thymus DNA; assay: Binding affinity to calf thymus DNA assessed as binding constant by scatchard plot analysis; conditions: Bos taurus
[11] = tested on: K562; assay: Induction of apoptosis in human K562 cells assessed as necrotic cells at 1.6 uM measured after 48 hrs by Annexin V-APC/PI staining based flow cytometry assay (reference value: 3.9%); type: functional
[12] = tested on: CAPAN-1; assay: Antiproliferative activity against human CAPAN-1 cells assessed as inhibition of cell proliferation measured after 72 hrs by MTT assay; type: functional, cell-based; conditions: CAPAN-1, 72 h
[13] = tested on: K562; assay: Induction of apoptosis in human K562 cells assessed as viable cells at 1.6 uM measured after 24 hrs by Annexin V-APC/PI staining based flow cytometry assay (reference value: 85.9%); type: functional; conditions: read-out: Activity
[14] = tested on: K562; assay: Induction of oxidative stress in human K562 cells assessed as increase in intracellular ROS generation at 1.6 uM measured after 40 mins by Deep Red dye based flow cytometry method; type: functional, cell-based
[15] = tested on: P388; assay: Antitumour activity against mouse P388 cells xenografted intraperitoneally in BDF1 mouse assessed as […] T/C ratio at 20 mg/kg, ip administered qd for 5 days (reference value: 100%); type: functional; conditions: dose 20 mg/kg/day; time 5 day
[16] = tested on: K562; assay: Induction of apoptosis in human K562 cells assessed as early apoptotic cells at 1.6 uM measured after 24 hrs by Annexin V-APC/PI staining based flow cytometry assay (reference value: 3.4%); type: functional
[17] = tested on: Calf thymus DNA; assay: Binding affinity to calf thymus DNA assessed as dissociation constant by scatchard plot analysis; set-up: species or system Bos taurus

Cc1[nH]c2c(O)c3c(c(O)c2c1C(=O)N1CC[C@H](N)C1)C(=O)c1ccccc1C3=O
Activity [1]: Tde
Drug uptake [2]: Active
Activity [3]: 21%
IC50 [4]: 900 nM
Activity [5]: Active
IC50 [6]: 21.2 µM
IC50 [7]: 900 nM
selectivity ratio [8]: 18
IC50 [9]: 800 nM
Kb [10]: 14 10^5/M
Activity [11]: 34.8%
IC50 [12]: 500 nM
viability at 1.6 µM [13]: 69.4%
Activity [14]: inactive
T/C [15]: 153%
Activity [16]: 1.3%
Kd [17]: 700 nM
